The first experiment has as its target T1, androgen receptor (AR) (Rattus norvegicus, UniProt P15207).
T1 construct: purchased Invitrogen, Madison, Wis
T1 sequence (P15207 651-902 limits assumed): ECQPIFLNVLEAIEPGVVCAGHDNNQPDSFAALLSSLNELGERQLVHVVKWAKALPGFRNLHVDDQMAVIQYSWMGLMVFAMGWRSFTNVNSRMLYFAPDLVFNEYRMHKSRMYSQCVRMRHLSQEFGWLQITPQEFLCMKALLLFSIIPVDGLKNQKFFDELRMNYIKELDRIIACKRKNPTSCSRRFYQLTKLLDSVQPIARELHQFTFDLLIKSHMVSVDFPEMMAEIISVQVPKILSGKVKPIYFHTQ
Put plainly: androgen receptor binding assay (fluorescence polarization, Fluormone AL Green competition).
Conditions: not given
On the procedure: The assay was performed as specified by the manufacturer (Invitrogen, Madison, Wis.). Briefly, 1 μl of 10 mM compound was added to 500 μl of AR screening buffer in a 1.5 ml eppendorf tube to make a 2×10^−5M stock. 10-fold serial dilutions of the test compounds were prepared ranging in concentration from 10^−5M to 10^−12M. Each dilution was added in triplicate to a black 384-microtiter plate. The test compounds will be diluted 2-fold in the final reaction. 2×AR-Fluormone™ complex was prepared with 2 nM Flourmone AL Green™ and 30 nM AR. 25 μl of 2× complex was aliquoted to each reaction well, such that the final reaction volume was 50 μl per well. Plate was sealed with a foil cover and incubated in the dark at room temperature for 4 h. Polarization values for each well were measured. The polarization values were plotted against the concentration of the test compound. […] As a control, a competition curve for R1881 (methyltrienolone) was performed for each assay. Curve Fitting was performed using GraphPad Prism® software from GraphPad™ Software Inc. Binding data are reported as a single determination if the experiment was run once only and as the average of experiments if the binding experiment was performed two or more times with that compound.
Where multiple data points have been taken, the value reported is the average of the multiple determinations.
For orientation: Fluorescence polarisation rises when a labelled molecule tumbles more slowly, as on binding a larger partner.
A word on the IC50: it is the concentration that inhibits the measured activity by half. `Cc1c(NC(c2nnc(-c3ccccc3)o2)C(O)c2ccccc2)ccc(C#N)c1Cl` (racemic) [Example 38, DL-Threo-2-chloro-4-(2-hydroxy-2-phenyl-1-(5-phenyl-1,3,4-oxadiazol-2-yl)ethylamino)-3-methylbenzonitrile] yielded a half-inhibitory concentration (IC50) of 60 nM.

`COc1ccc(-c2nnc([C@H](Nc3ccc(C#N)c(Cl)c3C)[C@H](C)O)o2)cc1` [Example 2, 2-chloro-4-((1R,2S)-2-hydroxy-1-(5-(4-methoxyphenyl)-1,3,4-oxadiazol-2-yl)propylamino)-3-methylbenzonitrile] came in with a concentration for half-maximal inhibition (IC50) of 5 nM.

`Cc1c(N[C@@H](c2nnc(-c3ccc(Cl)cc3)o2)[C@H](C)O)ccc(C#N)c1Cl` [Example 4, 2-chloro-4-((1R,2S)-1-(5-(4-chlorophenyl)-1,3,4-oxadiazol-2-yl)-2-hydroxypropylamino)-3-methylbenzonitrile] came in with an IC50 of 11 nM.

`Cc1c(N[C@@H](c2nnc(-c3ccc(F)cc3)o2)[C@H](C)O)ccc(C#N)c1Cl` [Example 5, 2-Chloro-4-((1R,2S)-1-(5-(4-fluorophenyl)-1,3,4-oxadiazol-2-yl)-2-hydroxypropylamino)-3-methylbenzonitrile] came in with an IC50 of 50 nM.

Take `COc1cccc(-c2nnc([C@H](Nc3ccc(C#N)c(Cl)c3C)[C@H](C)O)o2)c1` [Example 6, 2-chloro-4-((1R,2S)-2-hydroxy-1-(5-(3-methoxyphenyl)-1,3,4-oxadiazol-2-yl)propylamino)-3-methylbenzonitrile]: the half-inhibitory concentration (IC50) worked out at 16 nM.

With `Cc1c(N[C@@H](c2nnc(-c3cccc(O)c3)o2)[C@H](C)O)ccc(C#N)c1Cl` [Example 7, 2-chloro-4-((1R,2S)-2-hydroxy-1-(5-(3-hydroxyphenyl)-1,3,4-oxadiazol-2-yl)propylamino)-3-methylbenzonitrile], the IC50 came out at 0.4 nM.

The compound `Cc1c(N[C@@H](c2nnc(-c3ccc(O)cc3)o2)[C@H](C)O)ccc(C#N)c1Cl` [Example 8, 2-chloro-4-((1R,2S)-2-hydroxy-1-(5-(4-hydroxyphenyl)-1,3,4-oxadiazol-2-yl)propylamino)-3-methylbenzonitrile] yielded an IC50 of 15 nM.

Regarding `Cc1c(N[C@@H](c2nnc(-c3cccc(O)c3)o2)[C@@H](C)O)ccc(C#N)c1Cl` [Example 9, 2-chloro-4-((1R,2R)-2-hydroxy-1-(5-(3-hydroxyphenyl)-1,3,4-oxadiazol-2-yl)propylamino)-3-methylbenzonitrile], the IC50 amounted to 10 nM.

`Cc1c(N[C@@H](c2nnc(-c3ccc(O)cc3)o2)[C@@H](C)O)ccc(C#N)c1Cl` [Example 10, 2-chloro-4-((1R,2R)-2-hydroxy-1-(5-(4-hydroxyphenyl)-1,3,4-oxadiazol-2-yl)propylamino)-3-methylbenzonitrile] displayed an IC50 of 15 nM.

In turn, `CCc1c(N[C@@H](c2nnc(-c3ccccc3)o2)[C@H](C)O)ccc(C#N)c1Cl` [Example 11, 2-chloro-3-ethyl-4-((1R,2S)-2-hydroxy-1-(5-phenyl-1,3,4-oxadiazol-2-yl)propylamino)benzonitrile] registered a half-maximal inhibitory concentration (IC50) of 12 nM.

In turn, `C[C@H](O)[C@@H](Nc1ccc(C#N)c2ccccc12)c1nnc(-c2ccccc2)o1` [Example 13, 4-((1R,2S)-2-hydroxy-1-(5-phenyl-1,3,4-oxadiazol-2-yl)propylamino)-1-naphthonitrile] came in with an IC50 of 5 nM.

As for `Cc1c(N[C@@H](c2nnc(-c3ccc(Cl)cc3)o2)C(C)(C)O)ccc(C#N)c1Cl` [Example 15, (R)-2-chloro-4-(1-(5-(4-chlorophenyl)-1,3,4-oxadiazol-2-yl)-2-hydroxy-2-methylpropylamino)-3-methylbenzonitrile], the IC50 was 0.5 nM.

Turning to `C[C@H](O)[C@@H](Nc1ccc(C#N)c(C(F)(F)F)c1)c1nnc(-c2ccccc2)o1` [Example 16, 4-((1R,2S)-2-hydroxy-1-(5-phenyl-1,3,4-oxadiazol-2-yl)propylamino)-2-(trifluoromethyl)benzonitrile], the IC50 was 35 nM.

Compound `Cc1c(N[C@H](CO)c2nnc(-c3ccccc3)o2)ccc(C#N)c1Cl` [Example 17, (R)-2-chloro-4-(2-hydroxy-1-(5-phenyl-1,3,4-oxadiazol-2-yl)ethylamino)-3-methylbenzonitrile] registered a half-inhibitory concentration (IC50) of 10 nM.

With `Cc1c(N[C@@H](c2nc(-c3ccccc3)no2)[C@@H](C)O)ccc(C#N)c1Cl` [Example 18, 2-chloro-4-((1R,2R)-2-hydroxy-1-(3-phenyl-1,2,4-oxadiazol-5-yl)propylamino)-3-methylbenzonitrile], the IC50 stood at 60 nM.

For the compound `Cc1c(N[C@@H](c2nnc(-c3ccc(F)cc3)o2)[C@@H](C)O)ccc(C#N)c1Cl` [Example 19, 2-chloro-4-((1R,2R)-1-(5-(4-fluorophenyl)-1,3,4-oxadiazol-2-yl)-2-hydroxypropylamino)-3-methylbenzonitrile], the IC50 is 19 nM.

`Cc1c(N[C@@H](c2nnc(-c3ccc(Cl)cc3)o2)[C@@H](C)O)ccc(C#N)c1Cl` [Example 20, 2-Chloro-4-((1R,2R)-1-(5-(4-chlorophenyl)-1,3,4-oxadiazol-2-yl)-2-hydroxypropylamino)-3-methylbenzonitrile] gave an IC50 of 15 nM.

In turn, `Cc1c(N[C@@H](c2nnc(-c3cccc(Cl)c3)o2)[C@H](C)O)ccc(C#N)c1Cl` [Example 21, 2-chloro-4-((1R,2S)-1-(5-(3-chlorophenyl)-1,3,4-oxadiazol-2-yl)-2-hydroxypropylamino)-3-methylbenzonitrile] gave a 50% inhibitory concentration (IC50) of 3 nM.

In turn, `Cc1c(N[C@@H](c2nnc(-c3ccc(C#N)cc3)o2)[C@H](C)O)ccc(C#N)c1Cl` [Example 22, 2-chloro-4-((1R,2S)-1-(5-(4-cyanophenyl)-1,3,4-oxadiazol-2-yl)-2-hydroxypropylamino)-3-methylbenzonitrile] displayed an IC50 of 2 nM.

`Cc1c(N[C@@H](c2nnc(-c3ccc(C#N)cc3)o2)[C@@H](C)O)ccc(C#N)c1Cl` [Example 23, 2-chloro-4-((1R,2R)-1-(5-(4-cyanophenyl)-1,3,4-oxadiazol-2-yl)-2-hydroxypropylamino)-3-methylbenzonitrile] had an IC50 of 0.7 nM.

Turning to `Cc1c(N[C@@H](c2nnc(-c3ccc(S(C)(=O)=O)cc3)o2)[C@H](C)O)ccc(C#N)c1Cl` [Example 24, 2-chloro-4-((1R,2S)-2-hydroxy-1-(5-(4-(methylsulfonyl)phenyl)-1,3,4-oxadiazol-2-yl)propylamino)-3-methylbenzonitrile], the IC50 turned out to be 200 nM.

`Cc1c(N[C@@H](c2nnc(-c3ccc(S(C)(=O)=O)cc3)o2)[C@@H](C)O)ccc(C#N)c1Cl` [Example 25, 2-chloro-4-((1R,2R)-2-hydroxy-1-(5-(4-(methylsulfonyl)phenyl)-1,3,4-oxadiazol-2-yl)propylamino)-3-methylbenzonitrile] gave an IC50 of 258 nM.

Regarding `Cc1c(N[C@@H](c2nnc(-c3ccccc3)s2)[C@@H](C)O)ccc(C#N)c1Cl` [Example 26, 2-chloro-4-((1R,2R)-2-hydroxy-1-(5-phenyl-1,3,4-thiadiazol-2-yl)propylamino)-3-methylbenzonitrile], the IC50 is 10 nM.

Compound `Cc1c(N[C@@H](c2nnc(-c3ccccc3)s2)[C@H](C)O)ccc(C#N)c1Cl` [Example 27, 2-chloro-4-((1R,2S)-2-hydroxy-1-(5-phenyl-1,3,4-thiadiazol-2-yl)propylamino)-3-methylbenzonitrile] displayed an IC50 of 10 nM.

On to `Cc1c(N[C@@H](c2nnc(-c3ccc(F)cc3)s2)[C@@H](C)O)ccc(C#N)c1Cl` [Example 28, 2-chloro-4-((1R,2R)-1-(5-(4-fluorophenyl)-1,3,4-thiadiazol-2-yl)-2-hydroxypropylamino)-3-methylbenzonitrile], for which the IC50 stood at 16 nM.

In turn, `Cc1c(N[C@@H](c2nnc(-c3ccc(O)c(F)c3)o2)[C@H](C)O)ccc(C#N)c1Cl` [Example 29, 2-chloro-4-((1R,2S)-1-(5-(3-fluoro-4-hydroxyphenyl)-1,3,4-oxadiazol-2-yl)-2-hydroxypropylamino)-3-methylbenzonitrile] yielded an IC50 of 0.03 nM.

`Cc1c(N[C@@H](c2nnc(-c3ccc(O)c(Cl)c3)o2)[C@@H](C)O)ccc(C#N)c1Cl` [Example 30, 2-Chloro-4-((1R,2R)-1-(5-(3-chloro-4-hydroxyphenyl)-1,3,4-oxadiazol-2-yl)-2-hydroxypropylamino)-3-methylbenzonitrile]: the half-inhibitory concentration (IC50) was found to be 0.3 nM.

Still in this experiment, the particulars now being: single determination or average of multiple determinations; read-out: Binding IC50 (AR-Binding Affinity).
Consider `C[C@H](O)[C@@H](Nc1ccc(C#N)c(Cl)c1)c1nnc(-c2ccccc2)o1` [Example 12, 2-chloro-4-((1R,2S)-2-hydroxy-1-(5-phenyl-1,3,4-oxadiazol-2-yl)propylamino)benzonitrile], for which the IC50 was 300 nM.

`Cc1c(N[C@@H](c2nnc(-c3ccccc3)o2)C(C)(C)O)ccc(C#N)c1Cl` [Example 14, (R)-2-chloro-4-(2-hydroxy-2-methyl-1-(5-phenyl-1,3,4-oxadiazol-2-yl)propylamino)-3-methylbenzonitrile]: the IC50 was 17 nM.

(Values after patent US8455525B2, “Selective androgen receptor modulators” (Radius Health, Inc., priority 2008, dated 2013).)
